Reference: patent US20090203892A1, “Retrotransposon Inhibition in Therapy” (ISTITUTO SUPERIORE DI SANITA, priority 2004, published 2009)

Assays:
[1] = tested on: A-375 melanoma; assay: Cell growth under prolonged exposure to RT inhibitors; assay type: cell-based, Human; settings: for reversibility of growth inhibition: after removal of RT inhibitors, within one or two 96 h-cycles; for cell growth: nevirapine 350 μM, efavirenz 15 μM, five 96 h-cycles
Procedure: (§1) Human A-375 melanoma (ATCC-CRL-1619), TVM-A12 primary melanoma-derived (20), HT29 adenocarcinoma (ATCC HTB-38), H69 small cell lung carcinoma (SCLC) (ATCC HTB119), and PC3 prostate carcinoma (ATCC CRL-1435) cell lines were seeded in six-well plates at a density of 10^4 to 5×10^4 cells/well and cultured in DMEM or RPMI1640 medium with 10% fetal bovine serum. Nevirapine and Efavirenz were purified from commercially available Viramune (Boehringer-Ingelheim) and Sustiva (Bristol-Myers Squibb) as described (18). The drugs were made 350 and 15 μM in dimethyl sulfoxide (DMSO, Sigma-Aldrich), respectively, and added to cells 5 h after seeding; the same DMSO volume (0.2% final concentration) was added to controls. Fresh RT inhibitor-containing medium was changed every 48 h. Cells were harvested every 96 h, counted in a Burker chamber (two countings/sample) and replated at the same density.

[2] = tested on: PC3 prostate carcinoma; assay: as above; assay type: cell-based, Human; settings: for reversibility of growth inhibition: after removal of RT inhibitors, within one or two 96 h-cycles; for cell growth: nevirapine 350 μM, efavirenz 15 μM, five 96 h-cycles
Procedure: as §1

[3] = tested on: TVM-A12 primary melanoma-derived cell line; assay: as above; assay type: cell-based, Human; settings: for reversibility of growth inhibition: after removal of RT inhibitors, within one or two 96 h-cycles; for cell growth: nevirapine 350 μM, efavirenz 15 μM, five 96 h-cycles
Procedure: as §1

[4] = tested on: A-375 melanoma cells; assay: Morphological differentiation (phase contrast, SEM, confocal microscopy); assay type: cell-based, Human; settings: compared to DMSO-treated controls
Procedure: (§2) A-375 and TVM-A12 cells were fixed with 4% para-formaldehyde for 10 min and permeabilized in 0.2% Triton-X 100 in PBS for 5 min. […] Confocal sections were taken at 0.5-1 μm intervals. A-375 and TVM-A12 cells were fixed in 2.5% glutaraldehyde in 0.1 M Millonig's phosphate buffer. After washing, cells were post-fixed with 1% OsO4 (1 h, 4° C.) in MPB and dehydrated using increasing acetone concentrations. Samples were critical-point dried using liquid CO2 and sputter-coated with gold before examination on a Stereoscan 240 scanning electron microscope (Cambridge Instr., Cambridge, UK).

[5] = tested on: E-cadherin, c-myc, bcl-2 and cyclin D1 genes in A-375 melanoma cells; assay: Gene expression by semiquantitative RT-PCR in RT-inhibited cultures; assay type: cell-based, Human; settings: four cycles, compared to controls
Procedure: Each oligo pair was used in sequential amplification series with increasing numbers (25 to 40) of cycles. PCR products were electrophoresed, transferred to membranes and hybridized for 16 h at 42 C.° with [^32P]γ-ATP end-labelled internal oligonucleotides. The intensity of the amplification signal was measured by densitometry in at least three independent experiments for each gene. [table] […] This was investigated in semiquantitative RT-PCR analysis of cultures treated with DMSO only, or nevirapine or efavirenz for four cycles. In A-375 melanoma cells, we focussed on a set of four genes: the E-cadherin gene, involved in cell-cell adhesion and expressed in differentiated but not in tumor cells (24); and the c-myc, bcl-2 (25) and cyclin D1 (26) genes, which are directly implicated in melanoma cell proliferation and tumor growth.

[6] = tested on: A-375 melanoma xenograft; assay: Human tumor xenograft growth in athymic nude mice; assay type: in vivo; settings: 20 mg/kg s.c. daily five days a week, start one day or one week after inoculation; vs untreated
Procedure: (§3) Controls were injected with 50% DMSO.

[7] = tested on: H69 small cell lung carcinoma xenograft; assay: Human tumor xenograft growth in athymic nude mice; assay type: in vivo; settings: 20 mg/kg s.c. daily five days a week, start one day or one week after inoculation; vs untreated
Procedure: as §3

[8] = tested on: HT29 colon xenograft; assay: Human tumor xenograft growth in athymic nude mice; assay type: in vivo
Procedure: as §3

[9] = tested on: PC3 xenograft; assay: Human tumor xenograft growth in athymic nude mice; assay type: in vivo
Procedure: as §3

[10] = Procedure: Five-week old athymic nude mice (Harlan, Italy), kept in accordance with the European Union guidelines, were inoculated sub-cutaneously with A-375 melanoma (4×10^6), H-69 (10^7), PC3 (2×10^6) and HT-29 (10^6) cells in 100 μl PBS. […] Controls were injected with 50% DMSO. Treatment started one day or one week after tumor implant, and, in some experiments, was discontinued after 14 days. Tumor growth was monitored every other day by caliper measurements; volumes were calculated using the formula: […]
Cells were inoculated subcutaneously in the limb of athymic nude mice.

[11] = Preliminary in vivo assays of RT inhibitors
[12] = tested on: PC3 prostate cancer cells; assay: Tumorigenicity of efavirenz-pretreated PC3 cells inoculated in nude mice; assay type: in vivo
Procedure: as §3
We also investigated whether pretreatment of transformed cells with efavirenz would modify the tumorigenic potential of derived xenografts. PC3 prostate cancer cells were cultured with 20 μM efavirenz for two 96 h-cycles, a time that was sufficient for induction of the PSA and AR genes (FIG. 3B), and subsequently inoculated in nude mice.
Untreated cells were inoculated in parallel batches of animals. Efavirenz-pretreated, or untreated, PC3 cell xenografts were then either continuously treated with efavirenz in vivo or were left untreated. […] As summarized in FIG. 6 B, efavirenz-pretreated PC3 cells developed slowly-growing xenografts in 65% of the inoculated animals, compared to 100% using untreated cells. […] Thus, efavirenz attenuates the tumorigenic potential of transformed cells.

[13] = tested on: endogenous RT; settings: non-infected cells in vitro (ref. 19); cited from earlier work
[14] = tested on: primary TVM-A12 cells; assay: Morphological differentiation (phase contrast, SEM, confocal microscopy); assay type: cell-based, Human; settings: compared to untreated cells
Procedure: as §2

[15] = 20 mg/kg s.c. daily five days a week, start one day or one week after inoculation, vs untreated
[16] = treated from day one, treatment discontinuation after day 15

SMILES | reversibility of growth inhibition [1] | cell growth [1] | reversibility of growth inhibition [2] | cell growth [2] | reversibility of growth inhibition [3] | cell growth [3] | morphological differentiation [4] | inhibition of the enzymatic activity of the endogenous RT [13] | also measured
O=C1Nc2ccc(Cl)cc2[C@@](C#CC2CC2)(C(F)(F)F)O1 [efavirenz, Efavirenz] | reversible | effectively reduce cell growth | reversible | effectively reduce cell growth | reversible | effectively reduce cell growth | became evident within four-five days | inhibit the enzymatic activity of the endogenous RT | expression of the cyclin D1 gene [5]: failed to down-regulate cyclin D1 expression; tumor growth [6]: markedly reduced; tumor growth [7]: markedly reduced; tumor growth [8, 15]: markedly reduced; reversibility of inhibition of tumor growth [8, 16]: reversible in vivo; tumor growth [9, 15]: markedly reduced; reversibility of inhibition of tumor growth [9, 16]: reversible in vivo; animal death or signs of toxicity ([10]; 4 to 40 mg/kg, all animal groups): no animal death or explicit signs of toxicity in any of the groups; animals with significant decrease of body weight ([10]; group treated with 40 mg/kg): more than 60 % of animals; in vivo effectiveness relative to nevirapine [11]: higher in vivo effectiveness than nevirapine; inoculated animals developing xenografts ([12]; cells pretreated with 20 μM efavirenz for two 96 h-cycles, no treatment in vivo, 100% using untreated cells, 30 days): 65 % of the inoculated animals; xenograft growth ([12]; efavirenz-pretreated cells, no treatment in vivo): xenografts grew more slowly; xenograft growth ([12]; pretreated cells and further treated with efavirenz in vivo): the growth curve was flat; animals developing a tumor ([12]; pretreated cells and further treated with efavirenz in vivo, 30 days): 40 % of the animals
Cc1ccnc2c1NC(=O)c1cccnc1N2C1CC1 [nevirapine, Nevirapine] | reversible | effectively reduce cell growth | reversible | effectively reduce cell growth | reversible | effectively reduce cell growth | became evident within four-five days | inhibit the enzymatic activity of the endogenous RT | morphological differentiation [14]: formed instead typical branched dendrites
